The values that follow come from US20130158075A1, “HETEROCYCLIC COMPOUNDS AS DGAT1 INHIBITORS” (PIRAMAL ENTERPRISES LIMITED, priority 2010, published 2013).

Where a name gives a salt, the structure may show the parent alone. Where only a bound is given, the exact number is not on record here.

The target in the first experiment is T1, hDGAT1 (Homo sapiens, UniProt O75907).
T1 construct: made in house; host or cells: Sf9 insect cells (baculovirus); microsomal fraction
T1 sequence (O75907 1-488): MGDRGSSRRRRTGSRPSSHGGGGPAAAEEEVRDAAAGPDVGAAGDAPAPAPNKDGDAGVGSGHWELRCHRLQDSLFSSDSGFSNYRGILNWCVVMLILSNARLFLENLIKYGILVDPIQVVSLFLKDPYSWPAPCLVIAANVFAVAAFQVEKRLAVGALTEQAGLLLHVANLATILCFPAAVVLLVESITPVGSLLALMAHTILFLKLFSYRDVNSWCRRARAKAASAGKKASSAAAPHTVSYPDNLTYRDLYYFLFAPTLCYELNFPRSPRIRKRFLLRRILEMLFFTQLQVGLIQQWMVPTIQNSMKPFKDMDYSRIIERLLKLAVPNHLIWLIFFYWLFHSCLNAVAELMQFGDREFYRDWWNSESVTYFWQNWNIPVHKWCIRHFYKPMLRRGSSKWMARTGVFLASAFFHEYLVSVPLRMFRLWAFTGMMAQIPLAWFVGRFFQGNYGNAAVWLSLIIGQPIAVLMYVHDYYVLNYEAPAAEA
As to the kind of experiment: In-vitro DGAT1 assay with hDGAT1 microsomes from Sf9 cells (14C oleoyl CoA, scintillation counting). The format is biochemical. The settings on record: at 1 μM. The method, boiled down: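 Radiolabelled triglyceride formation was measured: heptane extracts were scintillation-counted after a 10-min, 37 °C reaction stopped with alkaline ethanol. Enzyme was human DGAT1 in baculovirus-infected Sf9 microsomal membranes; substrates were 14C oleoyl-CoA plus dioleoylglycerol. Runs were duplicated, and inhibition (%) was related to nM compound concentration.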
As for `CC(C)(CC(=O)O)Cc1ncc(-c2ccc(NC(=O)c3ccc(-c4ccccc4)cc3)cc2)s1` [Example 77, 4-(5-(4-Biphenyl-4-ylcarboxamidophenyl)thiazol-2-yl)-3,3-dimethylbutanoic acid], the “Percentage inhibition of hDGAT1” value is on record as “++ (>50 % Inhibition)”.
Regarding `CC(C)(O)CC1CCC(c2ncc(-c3ccc(NC(=O)Nc4cc(F)c(F)cc4F)cc3)s2)CC1` (stereo not drawn) [Example 409], the “Percentage inhibition of hDGAT1” value is listed as “++ (>50 % Inhibition)”.
As for `O=C(Nc1ccc(-c2cnc(CNS(=O)(=O)C(F)(F)F)s2)cc1)c1ccccc1Cl` [Example 551], the “Percentage inhibition of hDGAT1” value was “+ (20-50% Inhibition)”.
For the compound `O=C(Nc1ccc(-c2noc([C@H]3CC[C@H](C(=O)O)CC3)n2)cc1)Nc1cccc(Cl)c1` [Example 225, (1r,4r)-4-(3-(4-(3-(3-Chlorophenyl)ureido)phenyl)-1,2,4-oxadiazol-5-yl)cyclo hexanecarboxylic acid], the “Percentage inhibition of hDGAT1” value is given as “++ (>50 % Inhibition)”.
`CC(C)(Cc1ncc(-c2ccc(NC(=O)c3ccc(-c4ccccc4)cc3)cc2)s1)C(=O)O` [Example 44, 3-(5-(4-Biphenyl-4-ylcarboxamidophenyl)thiazol-2-yl)-2,2-dimethylpropanoic acid]: the “Percentage inhibition of hDGAT1” value is “+ (20-50% Inhibition)”.

The experiment is the same for the next values; noted with them: read-out: Percentage inhibition of hDGAT1.
For orientation: inhibition means the relative decrease from the control value, in per cent. For `Cc1nnc(CC2CCC(c3ncc(-c4ccc(NC(=O)c5c(F)cccc5F)cc4)s3)CC2)o1` (stereo not drawn) [Example 385, 2,6-Difluoro-N-(4-(2-(4-((5-methyl-1,3,4-oxadiazol-2-yl)methyl)cyclohexyl)thiazol-5-yl)phenyl)benzamide], the inhibition at 1 µM was 20 to 50%.
`CC(C)(CC(=O)O)Cc1ncc(-c2ccc(NC(=O)Nc3cccc(C(F)(F)F)c3)cc2)s1` [Example 69, 3,3-Dimethyl-4-(5-(4-(3-(3-(trifluoromethyl)phenyl)ureido)phenyl)thiazol-2-yl)butanoic acid]: the inhibition at 1 µM was above 50%.
Regarding `Cc1nnc(CC2CCC(c3ncc(-c4ccc(NC(=O)Nc5ccccc5Cl)cc4)s3)CC2)o1` (stereo not drawn) [Example 380, 1-(2-Chlorophenyl)-3-(4-(2-(4-((5-methyl-1,3,4-oxadiazol-2-yl)methyl)cyclohexyl)thiazol-5-yl)phenyl)urea], the inhibition at 1 µM was in the range of 20 to 50%.
In the case of `O=C(O)CCCc1ncc(-c2ccc(NC(=O)Nc3ccccc3Cl)cc2)s1` [Example 51, 4-(5-(4-(3-(2-Chlorophenyl)ureido)phenyl)thiazol-2-yl)butanoic acid], the inhibition at 1 µM was above 50%.
For the compound `O=C(Nc1ccccc1)Nc1ccc(-c2cnc(C3CCC(C(=O)O)CC3)s2)cc1` (stereo not drawn) [Example 192, 4-(5-(4-(3-Phenylureido)phenyl)thiazol-2-yl)cyclohexanecarboxylic acid], the inhibition at 1 µM is above 50%.
On the same count and under the same terms, the same measure for `O=C(Nc1ccc(-c2cnc(C3CCNCC3)s2)cc1)Nc1cc(F)c(F)cc1F` [Example 480, 1-(4-(2-(Piperidin-4-yl)thiazol-5-yl)phenyl)-3-(2,4,5-trifluorophenyl)urea hydrochloride]: 20 to 50%.
Turning to `O=C(Nc1ccc(-c2cnc(C3CCC(C(=O)O)CC3)s2)cc1)Nc1cccc(Cl)c1` (stereo not drawn) [Example 144, 4-(5-(4-(3-(3-Chlorophenyl)ureido)phenyl)thiazol-2-yl)cyclohexane carboxylic acid], the inhibition at 1 µM is above 50%.
Same read-out and setting: the same measure for `CC(C)(O)CC1CCC(c2ncc(-c3ccc(NC(=O)Nc4ccc(F)cc4F)cc3)s2)CC1` (stereo not drawn) [Example 407, 1-(2,4-Difluorophenyl)-3-(4-(2-(4-(2-hydroxy-2-methylpropyl)cyclohexyl)thiazol-5-yl)phenyl)urea]: above 50%.
As for `Cc1nnc(CC2CCC(c3ncc(-c4ccc(NC(=O)Nc5ccc(F)cc5F)cc4)s3)CC2)o1` (stereo not drawn) [Example 379, 1-(2,4-Difluorophenyl)-3-(4-(2-(4-((5-methyl-1,3,4-oxadiazol-2-yl)methyl)cyclohexyl)thiazol-5-yl)phenyl)urea], the inhibition at 1 µM is above 50%.
With `COc1ccccc1NC(=O)Nc1ccc(-c2cnc(C3CCC(C(=O)O)CC3)o2)cc1` (stereo not drawn) [Example 210, 4-(5-(4-(3-(2-Methoxyphenyl)ureido)phenyl)oxazol-2-yl)cyclohexane carboxylic acid], the inhibition at 1 µM was 20 to 50%.
On to `O=C(O)CCCc1nnc(-c2ccc(NC(=O)c3ccc(OC(F)(F)F)cc3)cc2)s1` [Example 292, 4-(5-(4-(4-(Trifluoromethoxy)benzamido)phenyl)-1,3,4-thiadiazol-2-yl)butanoic acid], for which the inhibition at 1 µM is 20 to 50%.
On the same count and under the same terms, the same measure for `O=C(Nc1ccc(-c2cnc(C3CCC(C(=O)O)CC3)s2)cc1)Nc1ccccc1OC(F)(F)F` (stereo not drawn) [Example 168, 4-(5-(4-(3-(2-(Trifluoromethoxy)phenyl)ureido)phenyl)thiazol-2-yl)cyclo hexanecarboxylic acid]: above 50%; for `CC(C)(CCc1ncc(-c2ccc(NC(=O)Nc3cccc(C(F)(F)F)c3)cc2)s1)C(=O)O` [Example 88, 2,2-Dimethyl-4-(5-(4-(3-(3-(trifluoromethyl)phenyl)ureido)phenyl)thiazol-2-yl)butanoic acid]: above 50%; for `CC(C)(NS(=O)(=O)C(F)(F)F)c1ncc(-c2ccc(NC(=O)NC3CCCCC3)cc2)s1` [Example 567, N-(2-(5-(4-(3-Cyclohexylureido)phenyl)thiazol-2-yl)propan-2-yl)-1,1,1-trifluoromethanesulfonamide]: above 50%.
In the case of `O=C(Nc1ccccc1)Nc1ccc(-c2cnc(C3CCC(C(=O)O)CC3)o2)cc1` (stereo not drawn) [Example 206, 4-(5-(4-(3-Phenylureido)phenyl)oxazol-2-yl)cyclohexanecarboxylic acid], the inhibition at 1 µM lay in the range of 20 to 50%.
Regarding `O=C(Nc1ccc(-c2cnc(C3CCC(C(=O)O)CC3)s2)cc1)NC1CCCCC1` (stereo not drawn) [Example 142, 4-(5-(4-(3-Cyclohexylureido)phenyl)thiazol-2-yl)cyclohexanecarboxylic acid], the inhibition at 1 µM was above 50%.
Consider `COc1ccc(NC(=O)Nc2ccc(-c3cnc(C4CCC(C(=O)O)CC4)s3)cc2)c(C)c1` (stereo not drawn) [Example 154, 4-(5-(4-(3-(4-Methoxy-2-methylphenyl)ureido)phenyl)thiazol-2-yl)cyclo hexanecarboxylic acid], for which the inhibition at 1 µM was above 50%.
Take `O=C(O)CCCc1nnc(-c2ccc(NC(=O)Nc3ccccc3Cl)cc2)o1` [Example 296, 4-(5-(4-(3-(2-Chlorophenyl)ureido)phenyl)-1,3,4-oxadiazol-2-yl)butanoic acid]: the inhibition at 1 µM lay within 20 to 50%.
As to `O=C(O)CCCc1nnc(-c2ccc(NC(=O)Nc3cccc(C(F)(F)F)c3)cc2)o1` [Example 302, 4-(5-(4-(3-(3-(Trifluoromethyl)phenyl)ureido)phenyl)-1,3,4-oxadiazol-2-yl)butanoic acid], the inhibition at 1 µM lay in the range of 20 to 50%.
Turning to `CC(C)(CCc1ncc(-c2ccc(NC(=O)Nc3cc(F)c(F)c(F)c3)cc2)s1)C(=O)O` [Example 255, 2,2-dimethyl-4-(5-(4-(3-(3,4,5-trifluorophenyl)ureido)phenyl)thiazol-2-yl)butanoic acid], the inhibition at 1 µM is above 50%.
Consider `O=C(O)CC1CCC(c2ncc(-c3ccc(NC(=O)Nc4cc(F)c(F)c(F)c4)cc3)s2)CC1` (stereo not drawn) [Example 368, 2-(4-(5-(4-(3-(3,4,5-Trifluorophenyl)ureido)phenyl)thiazol-2-yl)cyclohexyl)acetic acid], for which the inhibition at 1 µM was above 50%.
For `O=C(O)CCc1ncc(-c2ccc(NC(=O)Nc3ccccc3Cl)cc2)s1` [Example 9, 3-(5-(4-(3-(2-Chlorophenyl)ureido)phenyl)thiazol-2-yl)propanoic acid], the inhibition at 1 µM is above 50%.
On to `CC(C)(NS(=O)(=O)C(F)(F)F)c1ncc(-c2ccc(NC(=O)Nc3c(F)cc(F)cc3F)cc2)s1` [Example 566, 1,1,1-Trifluoro-N-(2-(5-(4-(3-(2,4,6-trifluorophenyl)ureido)phenyl)thiazol-2-yl)propan-2-yl)methanesulfonamide], for which the inhibition at 1 µM lay in the range of 20 to 50%.
Regarding `CC(C)(O)C1CCC(c2ncc(-c3ccc(NC(=O)Nc4ccccc4Cl)cc3)s2)CC1` (stereo not drawn) [Example 404, 1-(2-Chlorophenyl)-3-(4-(2-(4-(2-hydroxypropan-2-yl)cyclohexyl)thiazol-5-yl)phenyl)urea], the inhibition at 1 µM is above 50%.
Regarding `CC(C)(CCc1ncc(-c2ccc(NC(=O)NC3CCCCC3)cc2)s1)C(=O)O` [Example 94, 4-(5-(4-(3-Cyclohexylureido)phenyl)thiazol-2-yl)-2,2-dimethyl butanoic acid], the inhibition at 1 µM is above 50%.
`CC(C)(CCc1ncc(-c2ccc(NC(=O)N3CCC(F)(F)CC3)cc2)s1)C(=O)O` [Example 261, 4-(5-(4-(4,4-Difluoropiperidine-1-carboxamido)phenyl)thiazol-2-yl)-2,2-dimethyl butanoic acid]: the inhibition at 1 µM fell in the range of 20 to 50%.
The same measure, in the same setting: the same measure for `CC(C)(Cc1ncc(-c2ccc(NC(=O)Nc3ccc(Cl)cc3Oc3ccccc3)cc2)s1)C(=O)O` [Example 40, 3-(5-(4-(3-(4-Chloro-2-phenoxyphenyl)ureido)phenyl)thiazol-2-yl)-2,2-dimethylpropanoic acid]: above 50%.
As for `CC(C)(NS(=O)(=O)C(F)(F)F)c1ncc(-c2ccc(NC(=O)Nc3cc(F)c(F)cc3F)cc2)s1` [Example 565, 1,1,1-Trifluoro-N-(2-(5-(4-(3-(2,4,5-trifluorophenyl)ureido)phenyl)thiazol-2-yl)propan-2-yl)methanesulfonamide], the inhibition at 1 µM is above 50%.
